Reference: the NIST ThermoML archive (doi:10.1016/j.jct.2014.03.014)
Where “and” joins values, the source holds several entries; their conditions need not be identical. Equal entries are not always repeated.

Settings: Liquid, Closed cell (Static) method

FC(F)CC(F)(F)F [1,1,1,3,3-pentafluoropropane]
Settings | vapor or sublimation pressure
293.15 K | 122.7 kPa
295.08 K | 132.2 kPa
295.57 K | 134.7 kPa
296.57 K | 139.9 kPa
297.57 K | 145.2 kPa
298.57 K | 150.6 kPa and 150.7 kPa
298.58 K | 150.7 kPa
299.61 K | 156.5 kPa
300.61 K | 162.4 kPa
301.62 K | 168.4 kPa
302.63 K | 174.6 kPa
303.15 K | 177.9 kPa
303.64 K | 181 kPa
304.64 K | 187.6 kPa
305.65 K | 194.3 kPa
306.66 K | 201.2 kPa
307.67 K | 208.3 kPa
308.68 K | 215.7 kPa
309.7 K | 223.3 kPa
310.72 K | 231.1 kPa
311.74 K | 239.1 kPa
313.15 K | 250.3 kPa
313.71 K | 255.2 kPa
315.74 K | 272.6 kPa
317.76 K | 290.8 kPa
318.78 K | 300.3 kPa
319.77 K | 309.9 kPa
321.71 K | 329.1 kPa
323.15 K | 344 kPa
323.73 K | 349.9 kPa
325.71 K | 371.6 kPa
327.68 K | 394 kPa
329.67 K | 417.9 kPa
330.68 K | 430.4 kPa
331.7 K | 443.4 kPa
333.71 K | 469.6 kPa
335.73 K | 497.1 kPa
337.74 K | 525.9 kPa
338.75 K | 540.8 kPa
339.77 K | 556.1 kPa
341.82 K | 587.9 kPa
343.82 K | 620.4 kPa
343.88 K | 621 kPa
345.87 K | 654.6 kPa
347.86 K | 689.5 kPa
348.87 K | 707.6 kPa and 707.7 kPa
349.86 K | 725.9 kPa
350.86 K | 744.6 kPa
351.87 K | 763.8 kPa
352.87 K | 783.3 kPa

CC(C)C [2-methylpropane]
Settings | vapor or sublimation pressure [kPa]
293.15 K | 302.2
293.58 K | 306.7
295.58 K | 325.6
297.58 K | 345.2
299.59 K | 365.9
301.61 K | 387.6
303.15 K | 404.7
303.62 K | 410.2
305.63 K | 433.9
307.64 K | 458.6
309.65 K | 484.2
311.66 K | 510.9
313.15 K | 531.6
313.69 K | 538.7
315.7 K | 567.9
317.73 K | 598.1
319.72 K | 629
321.75 K | 661.7
323.15 K | 685.6
323.82 K | 696.1
325.77 K | 730.9
327.73 K | 765.3
329.74 K | 802.7
331.72 K | 840.8
333.71 K | 880.5
335.74 K | 922.5
337.79 K | 966.2
339.85 K | 1011.5
341.75 K | 1054.5
343.78 K | 1102.5
343.88 K | 1105.1
345.86 K | 1153.1
347.86 K | 1204.4
349.9 K | 1256.3
351.91 K | 1309.8
353.91 K | 1365.1
